Assays:
Histamine H3 receptor [1] = target: Histamine H3 receptor (Rattus norvegicus, UniProt Q9QYN8); test: Binding affinity towards rat cortical Histamine H3 receptor
Histamine H3 receptor [2] = target: T1, Histamine H3 receptor (Homo sapiens, UniProt Q9Y5N1); test: Binding affinity towards cloned human H3L receptor
Histamine H2 receptor = Histamine H2 receptor (Homo sapiens, UniProt P25021); test: Compound was tested for its binding affinity towards human H2 receptor
Histamine H3 receptor [3] = target: T1, Histamine H3 receptor; test: Compound was tested for its binding affinity towards human H3L receptor
Histamine H1 receptor = Histamine H1 receptor (Homo sapiens, UniProt P35367); test: Compound was tested for its binding affinity towards human H1 receptor
Histamine H1 receptor, sequence (P35367 whole entry): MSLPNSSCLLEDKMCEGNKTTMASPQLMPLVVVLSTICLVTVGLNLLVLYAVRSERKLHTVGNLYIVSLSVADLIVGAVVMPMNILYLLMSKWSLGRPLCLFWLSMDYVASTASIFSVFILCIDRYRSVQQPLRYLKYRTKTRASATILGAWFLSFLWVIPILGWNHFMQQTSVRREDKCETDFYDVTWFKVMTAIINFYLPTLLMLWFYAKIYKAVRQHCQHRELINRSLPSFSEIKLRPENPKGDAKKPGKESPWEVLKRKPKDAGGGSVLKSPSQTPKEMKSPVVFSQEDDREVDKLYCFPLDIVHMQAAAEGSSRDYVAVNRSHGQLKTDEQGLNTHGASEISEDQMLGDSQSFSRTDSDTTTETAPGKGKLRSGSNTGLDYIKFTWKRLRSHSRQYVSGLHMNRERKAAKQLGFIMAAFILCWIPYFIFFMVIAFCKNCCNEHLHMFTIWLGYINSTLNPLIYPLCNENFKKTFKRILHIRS

Histamine H3 receptor (Rattus norvegicus, UniProt Q9QYN8), sequence (Q9QYN8 whole entry): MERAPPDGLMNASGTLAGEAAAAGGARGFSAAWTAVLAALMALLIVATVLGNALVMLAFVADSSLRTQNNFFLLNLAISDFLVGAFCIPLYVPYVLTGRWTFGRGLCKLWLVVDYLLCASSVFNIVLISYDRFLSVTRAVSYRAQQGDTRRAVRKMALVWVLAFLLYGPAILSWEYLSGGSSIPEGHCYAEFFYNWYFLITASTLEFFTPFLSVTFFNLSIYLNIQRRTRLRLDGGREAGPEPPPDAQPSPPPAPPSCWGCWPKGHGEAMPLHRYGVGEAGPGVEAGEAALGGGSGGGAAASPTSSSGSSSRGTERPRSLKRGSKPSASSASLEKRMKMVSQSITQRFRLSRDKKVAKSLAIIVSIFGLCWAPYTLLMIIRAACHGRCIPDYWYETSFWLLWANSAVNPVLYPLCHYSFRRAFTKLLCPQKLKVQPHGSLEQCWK
T1 sequence (Q9Y5N1 whole entry): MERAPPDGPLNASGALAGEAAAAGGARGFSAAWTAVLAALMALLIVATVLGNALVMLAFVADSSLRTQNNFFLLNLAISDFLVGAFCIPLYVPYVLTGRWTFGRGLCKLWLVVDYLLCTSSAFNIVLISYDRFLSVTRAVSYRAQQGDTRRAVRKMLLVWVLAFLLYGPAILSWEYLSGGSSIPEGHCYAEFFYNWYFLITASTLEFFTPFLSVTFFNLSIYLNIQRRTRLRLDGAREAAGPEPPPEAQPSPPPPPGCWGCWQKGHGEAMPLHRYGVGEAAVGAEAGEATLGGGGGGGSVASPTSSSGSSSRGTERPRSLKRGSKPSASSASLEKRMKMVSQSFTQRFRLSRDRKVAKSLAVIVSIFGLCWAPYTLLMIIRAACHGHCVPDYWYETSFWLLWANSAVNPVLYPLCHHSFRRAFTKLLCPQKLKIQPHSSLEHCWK
Histamine H2 receptor, sequence (P25021 whole entry): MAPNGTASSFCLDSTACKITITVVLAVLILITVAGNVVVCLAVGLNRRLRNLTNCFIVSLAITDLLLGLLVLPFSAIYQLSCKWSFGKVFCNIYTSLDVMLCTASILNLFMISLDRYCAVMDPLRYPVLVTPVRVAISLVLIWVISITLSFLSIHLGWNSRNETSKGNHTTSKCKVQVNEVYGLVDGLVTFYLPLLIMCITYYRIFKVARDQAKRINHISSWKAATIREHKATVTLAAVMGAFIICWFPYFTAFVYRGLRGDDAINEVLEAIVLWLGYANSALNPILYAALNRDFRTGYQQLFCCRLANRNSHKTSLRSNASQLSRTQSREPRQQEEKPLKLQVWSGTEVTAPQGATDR

Q: What does the source list for `CN(C)CCCNc1c2c(nc3ccccc13)CCSC2`?
A: Ki (Histamine H3 receptor [1]): 58.9 nM; Ki (Histamine H3 receptor [2]): 53.7 nM

Q: For `CN(C)CCC#Cc1c2c(nc3ccccc13)CCCCC2`, which Ki (Histamine H3 receptor [1]) is on record?
A: 692 nM

Q: What about the Ki (Histamine H3 receptor [2]) of the same compound?
A: 389 nM

Q: For `C(=C/c1c2c(nc3ccccc13)CCCCC2)/CCN1CCCCC1`, which Ki (Histamine H3 receptor [1]) is on record?
A: 275 nM

Q: And the Ki (Histamine H3 receptor [2])?
A: 87.1 nM

Q: How did the Ki (Histamine H3 receptor [1]) turn out when `CN(C)CCNc1c2c(nc3ccccc13)CCCCC2` was run?
A: 148 nM

Q: What about the Ki (Histamine H3 receptor [2]) of the same compound?
A: 47.9 nM

Q: How did the Ki (Histamine H3 receptor [1]) turn out when `OC[C@@H]1CCN(CCC#Cc2c3c(nc4ccccc24)CCCCC3)C1` was run?
A: 617 nM

Q: And the Ki (Histamine H3 receptor [2])?
A: 251 nM

Q: Which results are given for `C(#Cc1c2c(nc3ccccc13)CCCCC2)CCN1CCCCCC1`?
A: Ki (Histamine H3 receptor [1]): > 1000 nM; Ki (Histamine H3 receptor [2]): 437 nM

Q: Which results are given for `C(#Cc1c2c(nc3ccccc13)CCCCC2)CCN1CCOCC1`?
A: Ki (Histamine H3 receptor [1]): > 1000 nM; Ki (Histamine H3 receptor [2]): > 1000 nM

Q: Which Ki (Histamine H3 receptor [1]) does the source give for `CN1CCN(CCCNc2c3c(nc4ccccc24)CCCCC3)CC1` here?
A: 97.7 nM

Q: And the Ki (Histamine H3 receptor [2])?
A: 51.3 nM

Q: For `N[C@@H]1[C@H]2CN(CCCNc3c4c(nc5ccccc35)CCCCC4)C[C@@H]12`, which Ki (Histamine H3 receptor [1]) is on record?
A: 74.1 nM

Q: And the Ki (Histamine H3 receptor [2])?
A: 44.7 nM

Q: Which Ki (Histamine H3 receptor [1]) does the source give for `CN1CCCC1CCNc1c2c(nc3ccccc13)CCCCC2` (stereo not drawn) here?
A: 18.2 nM

Q: What about the Ki (Histamine H3 receptor [2]) of the same compound?
A: 6.61 nM

Q: What about the Ki (Histamine H2 receptor) of the same compound?
A: 1730 nM

Q: And the Ki (Histamine H3 receptor [3])?
A: 6.6 nM

Q: What about the Ki (Histamine H1 receptor) of the same compound?
A: 4080 nM

Q: `C(#Cc1c2c(nc3ccccc13)CCCCCC2)CCN1CCCCC1` was tested. Which Ki (Histamine H3 receptor [1]) did it give?
A: 646 nM

Q: What about the Ki (Histamine H3 receptor [2]) of the same compound?
A: 158 nM

Q: Which results are given for `C(#Cc1c2c(nc3ccccc13)CCCCC2)CCN1CCCCC1`?
A: Ki (Histamine H3 receptor [1]): 407 nM; Ki (Histamine H3 receptor [2]): 79.4 nM; Ki (Histamine H2 receptor): 3210 nM; Ki (Histamine H3 receptor [3]): 80 nM; Ki (Histamine H1 receptor): 1000 nM

Q: How did the Ki (Histamine H3 receptor [1]) turn out when `CN(C)CCCNc1c2c(nc3c1CCCC3)CCCCC2` was run?
A: 355 nM

Q: With `c1ccc2c(NCCCn3ccnc3)c3c(nc2c1)CCCCC3` as the compound, how does the Ki (Histamine H3 receptor [1]) read?
A: > 1000 nM

Q: And the Ki (Histamine H3 receptor [2])?
A: > 1000 nM

Q: What does the source list for `OC[C@H]1CCN(CCC#Cc2c3c(nc4ccccc24)CCCCC3)C1`?
A: Ki (Histamine H3 receptor [1]): > 1000 nM; Ki (Histamine H3 receptor [2]): 955 nM

Q: With `CC(C)(C)OC(=O)N1CCN(c2c3c(nc4ccccc24)CCCCC3)CC1` as the compound, how does the Ki (Histamine H3 receptor [1]) read?
A: > 1000 nM

Q: And the Ki (Histamine H3 receptor [2])?
A: > 1000 nM

Q: `CC(=O)N(CCCN(C)C)c1c2c(nc3ccccc13)CCCCC2` was tested. Which Ki (Histamine H3 receptor [1]) did it give?
A: > 1000 nM

Q: And the Ki (Histamine H3 receptor [2])?
A: 1000 nM

Q: With `CC(C)(C)OC(=O)N1CCCN(c2c3c(nc4ccccc24)CCCCC3)CC1` as the compound, how does the Ki (Histamine H3 receptor [1]) read?
A: > 1000 nM

Q: And the Ki (Histamine H3 receptor [2])?
A: > 1000 nM

Q: How did the Ki (Histamine H3 receptor [1]) turn out when `CN(C)CCCNc1c2c(nc3ccccc13)CCCCC2` was run?
A: 21.9 nM

Q: And the Ki (Histamine H3 receptor [2])?
A: 9.77 nM

Q: What about the Ki (Histamine H2 receptor) of the same compound?
A: 10100 nM

Q: What about the Ki (Histamine H3 receptor [3]) of the same compound?
A: 9.7 nM

Q: What about the Ki (Histamine H1 receptor) of the same compound?
A: 7700 nM

Q: Which results are given for `CC(C)(C)OC(=O)N[C@H]1[C@@H]2CN(CCCNc3c4c(nc5ccccc35)CCCCC4)C[C@@H]21`?
A: Ki (Histamine H3 receptor [1]): 51.3 nM; Ki (Histamine H3 receptor [2]): 46.8 nM

Q: With `c1ccc2c(NCCCN3CCOCC3)c3c(nc2c1)CCCCC3` as the compound, how does the Ki (Histamine H3 receptor [1]) read?
A: 398 nM

Q: What about the Ki (Histamine H3 receptor [2]) of the same compound?
A: 759 nM

Q: Which Ki (Histamine H3 receptor [1]) does the source give for `c1ccc2c(N3CCCNCC3)c3c(nc2c1)CCCCC3` here?
A: > 1000 nM

Q: And the Ki (Histamine H3 receptor [2])?
A: > 1000 nM

Q: How did the Ki (Histamine H3 receptor [1]) turn out when `CN(C)CCCCNc1c2c(nc3ccccc13)CCCCC2` was run?
A: 38.9 nM

Q: And the Ki (Histamine H3 receptor [2])?
A: 43.7 nM

Q: For `CN1CCN(CCC#Cc2c3c(nc4ccccc24)CCCCC3)CC1`, which Ki (Histamine H3 receptor [1]) is on record?
A: > 1000 nM

Q: And the Ki (Histamine H3 receptor [2])?
A: 724 nM

Q: Which results are given for `C(#Cc1c2c(nc3ccccc13)CCCCC2)CCN1CCCC1`?
A: Ki (Histamine H3 receptor [1]): 646 nM; Ki (Histamine H3 receptor [2]): 214 nM

Q: How did the Ki (Histamine H3 receptor [1]) turn out when `c1ccc2c(NCCCN3CCCC3)c3c(nc2c1)CCCCC3` was run?
A: 2.51 nM

Q: What about the Ki (Histamine H3 receptor [2]) of the same compound?
A: 1.74 nM

Q: And the Ki (Histamine H2 receptor)?
A: 3780 nM

Q: And the Ki (Histamine H3 receptor [3])?
A: 6.6 nM

Q: What about the Ki (Histamine H1 receptor) of the same compound?
A: 15700 nM
